Where a name gives a salt, the structure may show the parent alone.

The target in the first data set is T1, human Factor XIa (Homo sapiens, UniProt P03951).
T1 construct: Enzyme: Factor XIa; 0.25 μM in 50% glycerol (20 μg/mL)
T1 sequence (P03951 388-625 limits assumed): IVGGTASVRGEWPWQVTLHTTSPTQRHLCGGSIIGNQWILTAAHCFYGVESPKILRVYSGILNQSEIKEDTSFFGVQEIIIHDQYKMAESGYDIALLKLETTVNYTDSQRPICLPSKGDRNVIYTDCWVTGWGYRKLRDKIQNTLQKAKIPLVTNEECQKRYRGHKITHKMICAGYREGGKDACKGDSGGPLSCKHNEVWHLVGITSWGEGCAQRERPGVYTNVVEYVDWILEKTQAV
T1 sequence (P03951 19-387 partner limits assumed): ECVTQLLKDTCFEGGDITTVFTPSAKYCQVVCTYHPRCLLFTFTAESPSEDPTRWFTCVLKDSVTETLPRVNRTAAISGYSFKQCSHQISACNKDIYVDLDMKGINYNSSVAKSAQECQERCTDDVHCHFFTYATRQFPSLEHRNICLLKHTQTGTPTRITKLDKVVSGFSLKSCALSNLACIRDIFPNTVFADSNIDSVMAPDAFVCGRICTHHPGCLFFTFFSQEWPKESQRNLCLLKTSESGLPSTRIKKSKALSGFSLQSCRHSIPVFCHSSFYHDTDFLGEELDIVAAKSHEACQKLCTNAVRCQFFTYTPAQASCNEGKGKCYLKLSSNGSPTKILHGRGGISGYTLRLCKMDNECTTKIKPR
Kind of data set: Factor XIa enzyme inhibition assay (IC50, purified enzyme). The format is biochemical. Particulars: purified enzyme 0.25 nM, substrate 50 μM; read-out: Potency hFXIa IC50. The method, then: • Assay buffer: 20 mM Hepes, pH 7.4; 150 mM NaCl; 0.02% Tween 20 • Compounds: 10 mM stocks in DMSO • Substrate: 20 mM Glp-Pro-Arg-AMC, 25 mg/2.3 mL H2O (store at +4° C.) [Factor XIa, thrombin, and trypsin] • 20 mM Pro-Phe-Arg-AMC (Bachem I-1295), 25 mg/2.2 mL H2O (store at +4° C.) [Factor Xa] • Enzyme: Factor XIa; 0.25 μM in 50% glycerol (20 μg/mL) • Trypsin; 0.2 μM in 50% glycerol (4.8 μg/mL) • Thrombin; 0.2 μM in 50% glycerol (7.34 μg/mL) • Factor Xa; 0.2 μM in 50% glycerol (9.2 μg/mL) • These stocks are aliquoted ([…]) and stored at −20° C. Methods: • 1. Dilute the substrate to 100 μM in assay buffer (30 μL/6 mL). The enzyme is diluted to 0.5 nM just prior to use (12 μL/6 mL for Factor XIa; 15 μL/6 mL for all of the rest.) • 2. Pipette 50 μL of substrate into each well of the 96 well (12×8) microtiter plate. (Column 1 is used as the 100% activity control and receives no compound, and Column 12 is the blank and receives no enzyme.) Add an additional 46 μL to column 2. • 3. Pipette 4 μL of each compound into the appropriate well in column 2 of the plate (unknowns assayed in triplicate, standard assayed in duplicate). The final compound concentration will be 1/50th of the stock. • 4. Serially two-fold dilute the compound by mixing the sample in column 2, removing 50 μL to the next well (column 3), mix and remove to column 4, etc. until column 11. After mixing column 11, remove 50 μL and discard. • 5. Pipette 50 μL of buffer into column 12. Initiate the reaction by adding 50 μL of enzyme solution to each well of columns 1-11 as rapidly as possible. • 6. Read the plate in a spectrophotometer (SpectraMax) at 30° C., wherein each well is measured every 60 s for 30 min. For Factor Xa assays, each well is measured every 1 min for a total of 60 min. • 7. For Factor XIa assays, the compounds are assayed, in duplicate, at 3 different starting concentrations, 20, 2, and 0.2 μM; 1:10, 1:100, and 1:1000 dil'n of 10 mM stock. All data sets are combined for graphing and data fitting. • 8. Data can be used both for estimation of IC50 and for estimation of Kon.
Potential inhibitors of Factor XIa were evaluated using the following assay.
S-2366, pyroGlu-Pro-Arg-7-methylaminocourin (AMC), available from CPC Scientific, Inc., is based on the substrate pyro-Glu-Pro-Arg-pNA, available from Diapharma Group, Inc. (Columbus, Ohio), where the p-nitroanaline group is replaced with 7-methylaminocoumarin (AMC).
The final concentration of the substrate in the assay was 50 μM, and the final concentration of the enzyme was 0.25 nM. Inhibitors were tested by serial dilution over an appropriate range to yield a dose response curve for determination of the inhibitors' IC50 value. The assay mixture was read every minute for 30 minutes in order to generate progress curves. The plates were read in a Spectramax m5 Multimode Plate Reader (Molecular Devices LLC, Sunnyvale, Calif.). Dose response curves were fit to Equation 1 below in which A is the maximum inhibition, B is the minimum inhibition, C is the IC50, and D is the Hill coefficient. [(A−B)/(1+(X/C)^D)]+B (Equation 1)
As usually defined, the IC50 is the concentration that gives 50% inhibition. Regarding `CCCCCCOC(=O)Nc1cc(C[C@H]2C(=O)N(C(=O)N[C@H](C)c3ccccc3)[C@@H]2C(=O)O)ccn1` [Example 175], the IC50 was over 1 µM.

On to `C[C@@H](NC(=O)N1C(=O)[C@H](Cc2cc(Cl)ccn2)[C@H]1C(=O)O)c1ccc2c(c1)OC(F)(F)O2` [Example 107], for which the IC50 is over 1 µM.

As to `O=C(O)[C@@H]1[C@@H](Cc2ccc(Cl)cc2)C(=O)N1C(=O)N[C@@H](C1CCCCC1)C(F)(F)F` [Example 195], the IC50 was over 1 µM.

In the case of `O=C(O)[C@@H]1[C@@H](Cc2ccnc(Cl)c2)C(=O)N1C(=O)NC(c1ccccc1)c1ccccc1` [Example 51], the IC50 was over 1 µM.

With `O=C(O)[C@@H]1[C@@H](Cc2cccc(Br)c2)C(=O)N1C(=O)N[C@@H](C1CCCCC1)C(F)(F)F` [Example 131], the IC50 was over 1 µM.

Take `C[C@@H](NC(=O)N1C(=O)[C@H](Cc2ccnc(N)c2)[C@H]1C(N)=O)c1ccccc1` [Example 13, (2S,3R)-3-[(2-aminopyridin-4-yl)methyl]-4-oxo-N-1-[(1R)-1-phenylethyl]azetidine-1,2-dicarboxamide trifluoroacetate]: the IC50 is over 1 µM.

Take `O=C(O)[C@@H]1[C@@H](CCc2cc(Cl)ccc2F)C(=O)N1C(=O)N[C@@H](C1CCCCC1)C(F)(F)F` [Example 197]: the IC50 is 0.1 to 1 µM.

Take `C[C@@H](NC(=O)N1C(=O)[C@H](Cc2cncc(Cl)c2)[C@H]1C(=O)O)c1ccc2c(c1)OC(F)(F)O2` [Example 108]: the IC50 was over 1 µM.

Consider `C[C@@H](NC(=O)N1C(=O)[C@H](Cc2ccccn2)[C@H]1C(=O)O)c1ccc2c(c1)OC(F)(F)O2` [Example 114], for which the IC50 is over 1 µM.

In the case of `O=C(O)[C@@H]1[C@@H](Cc2ccnc(O)c2)C(=O)N1C(=O)N[C@@H](C1CCCCC1)C(F)(F)F` [Example 147], the IC50 was over 1 µM.

Take `C[C@@H](NC(=O)N1C(=O)[C@H](CCc2cccc(Cl)c2)[C@H]1C(=O)O)c1ccc2c(c1)OC(F)(F)O2` [Example 159]: the IC50 lay within 0.1 to 1 µM.

For `O=C(O)[C@@H]1[C@@H](CCc2cccc(Cl)c2)C(=O)N1C(=O)NC(c1ccccc1)c1ccccc1` [Example 157], the IC50 was over 1 µM.

Regarding `CCOC(=O)[C@@H]1[C@@H](Cc2cccnc2)C(=O)N1C(=O)N[C@H](C)c1ccc2c(c1)OC(F)(F)O2` [Example 95], the IC50 is over 1 µM.

For the molecule `O=C(O)[C@@H]1[C@@H](CCc2ccccc2)C(=O)N1C(=O)N[C@@H](C1CCCCC1)C(F)(F)F` [Example 145], the IC50 is over 1 µM.

For the molecule `CCCCCCOC(=O)Nc1cc(C[C@H]2C(=O)N(C(=O)NC(c3ccccc3)c3ccccc3)[C@@H]2C(=O)OCC)ccn1` [Example 57], the IC50 was over 1 µM.

For `COc1cccc(CC[C@H]2C(=O)N(C(=O)N[C@@H](C3CCCCC3)C(F)(F)F)[C@@H]2C(=O)O)c1` [Example 154], the IC50 was over 1 µM.

As to `CCOC(=O)[C@@H]1[C@@H](Cc2ccc(Cl)nc2)C(=O)N1C(=O)N[C@H](C)c1ccc2c(c1)OC(F)(F)O2` [Example 97], the IC50 is over 1 µM.

For `O=C(O)[C@@H]1[C@@H](CCc2cc(Cl)ccc2Cl)C(=O)N1C(=O)N[C@@H](C1CCCCC1)C(F)(F)F` [Example 198], the IC50 fell in the range of 0.1 to 1 µM.

As for `Cc1cccc(CC[C@H]2C(=O)N(C(=O)N[C@@H](C3CCCCC3)C(F)(F)F)[C@@H]2C(=O)O)c1` [Example 155], the IC50 lay in the range of 0.1 to 1 µM.

As for `O=C(O)[C@@H]1[C@@H](Cc2cccc(Cl)c2)C(=O)N1C(=O)N[C@@H](C1CCCCC1)C(F)(F)F` [Example 193], the IC50 was over 1 µM.

As for `CC(C)OC(=O)[C@@H]1[C@@H](Cc2ccc(Cl)nc2)C(=O)N1C(=O)N[C@H](C)c1ccc2c(c1)OC(F)(F)O2` [Example 171], the half-inhibitory concentration (IC50) is over 1 µM.

Consider `C[C@H](c1ccccc1)N(C)C(=O)N1C(=O)[C@H](CCc2cccc(Cl)c2)[C@H]1C(=O)O` [Example 144], for which the IC50 is over 1 µM.

For `O=C(O)[C@@H]1[C@@H](CCc2ccc(Br)s2)C(=O)N1C(=O)N[C@@H](C1CCCCC1)C(F)(F)F` [Example 200], the IC50 is over 1 µM.

`O=C(O)[C@@H]1[C@@H](Cc2ccccc2Cl)C(=O)N1C(=O)N[C@@H](C1CCCCC1)C(F)(F)F` [Example 196]: the IC50 was over 1 µM.

In the case of `O=C(O)[C@@H]1[C@@H](Cc2cccc3c2OCO3)C(=O)N1C(=O)N[C@@H](C1CCCCC1)C(F)(F)F` [Example 136], the IC50 was 0.1 to 1 µM.

On to `O=C(O)[C@@H]1[C@@H](Cc2cncc(Cl)c2)C(=O)N1C(=O)N[C@@H](C1CCCCC1)C(F)(F)F` [Example 133], for which the IC50 was over 1 µM.

As to `CCCCCCOC(=O)Nc1cc(C[C@H]2C(=O)N(C(=O)NC(C)c3ccccc3)[C@@H]2C(=O)OCC)ccn1` (stereo partly drawn) [Example 160], the IC50 lay in the range of 0.1 to 1 µM.

In the case of `C[C@H](C1CCCCC1)N(C)C(=O)N1C(=O)[C@H](Cc2ccnc(N)c2)[C@H]1C(=O)O` [Example 149], the IC50 is 0.01 to 0.1 µM.

As to `CCOC(=O)[C@@H]1[C@@H](Cc2ccnc(N)c2)C(=O)N1C(=O)N(C)[C@H](C)C1CCCCC1` [Example 151], the IC50 was 0.01 to 0.1 µM.

As for `C[C@@H](NC(=O)N1C(=O)[C@H](Cc2cccnc2)[C@H]1C(=O)O)c1ccc2c(c1)OC(F)(F)O2` [Example 191], the IC50 is over 1 µM.

With `C[C@@H](NC(=O)N1C(=O)[C@H](Cc2ccc(Cl)nc2)[C@H]1C(=O)O)c1ccc2c(c1)OC(F)(F)O2` [Example 96], the IC50 is over 1 µM.

As to `O=C(O)[C@@H]1[C@@H](CCCc2ccccc2)C(=O)N1C(=O)N[C@@H](C1CCCCC1)C(F)(F)F` [Example 152], the IC50 was over 1 µM.

On to `O=C(O)[C@@H]1[C@@H](Cc2ccccc2)C(=O)N1C(=O)N[C@@H](C1CCCCC1)C(F)(F)F` [Example 139], for which the IC50 was over 1 µM.

As to `C[C@@H](NC(=O)N1C(=O)[C@H](Cc2ccnc(Cl)c2)[C@H]1C(=O)O)c1ccccc1` [Example 190], the IC50 is over 1 µM.

As for `O=C(O)[C@@H]1[C@@H](CCc2cccc(Cl)c2)C(=O)N1C(=O)N[C@@H](C1CCCCCCC1)C(F)(F)F` [Example 199], the IC50 was in the range of 0.1 to 1 µM.

For the molecule `O=C(O)[C@@H]1[C@@H](Cc2cccc3[nH]ncc23)C(=O)N1C(=O)N[C@@H](C1CCCCC1)C(F)(F)F` [Example 138], the IC50 is over 1 µM.

As for `O=C(O)[C@@H]1[C@@H](CCc2ccccc2Cl)C(=O)N1C(=O)N[C@@H](C1CCCCC1)C(F)(F)F` [Example 194], the IC50 is over 1 µM.

As to `CCCC(CCC)NC(=O)N1C(=O)[C@H](CCc2cccc(Cl)c2)[C@H]1C(=O)O` [Example 192], the IC50 was over 1 µM.

For the molecule `O=C(O)[C@@H]1[C@@H](CCc2ccc(Cl)cc2)C(=O)N1C(=O)N[C@@H](C1CCCCC1)C(F)(F)F` [Example 153], the IC50 is over 1 µM.

System in a further data set: not listed separately
Kind of data set: β-Lactam stability in rat plasma. Particulars: normal rat plasma, room temperature; read-out: Rat Plasma Stability (T1/2; min). Type of data set: in vitro ADME. The method, then: Normal rat plasma, stored at −80° C.
• 1. Place 6 μL of each compound into 0.5 mL microcentrifuge tubes or 96-well U-bottom, polypropylene microtiter plate • 2. Place 40 μL of acetonitrile (AcN) into 0.5 mL microcentrifuge tubes labeled 1-9 • 3. Add 114 μL of plasma to each compound • 4. Sample 10 μL of compound/plasma into AcN at 2, 10, 20, 30, 60, 90, 120, 240, and 480 min of incubation at room temperature • 5. Mix each time point after adding sample and place on ice. • 6. Centrifuge time points (12,000 rpm, 3 min), remove 15 μL of the supernatant and mix with 15 μL 0.1% TFA in a V-bottom microtiter plate. • 7. Place microtiter plate in autosampler of HPLC and analyze on Restek Pinnacle C18 column (2.1×100 mm). • 8. Generate extracted ion chromatogram for parent compound and parent compound+18 (H2O). Integrate extracted ion chromatograms (EIC) and plot % total peak area for parent and adduct versus time. Fit to a model of single phase exponential decay [Y=A0*exp(−k*x)+C]. T½ is equal to ln(2)/k.
Turning to `CCCCCCOC(=O)Nc1cc(C[C@H]2C(=O)N(C(=O)N[C@H](C)c3ccccc3)[C@@H]2C(=O)O)ccn1` [Example 175], the half-life was over 1.67 h.

Regarding `CCCCCCOC(=O)Nc1cc(C[C@H]2C(=O)N(C(=O)NC(c3ccccc3)c3ccccc3)[C@@H]2C(=O)OCC)ccn1` [Example 57], the half-life was under 1.67 h.

For `CCOC(=O)[C@@H]1[C@@H](Cc2ccc(Cl)nc2)C(=O)N1C(=O)N[C@H](C)c1ccc2c(c1)OC(F)(F)O2` [Example 97], the half-life is under 1.67 h.

`CC(C)OC(=O)[C@@H]1[C@@H](Cc2ccc(Cl)nc2)C(=O)N1C(=O)N[C@H](C)c1ccc2c(c1)OC(F)(F)O2` [Example 171]: the half-life was under 1.67 h.

With `CCCCCCOC(=O)Nc1cc(C[C@H]2C(=O)N(C(=O)NC(C)c3ccccc3)[C@@H]2C(=O)OCC)ccn1` (stereo partly drawn) [Example 160], the half-life was under 1.67 h.

Take `CCOC(=O)[C@@H]1[C@@H](Cc2ccnc(N)c2)C(=O)N1C(=O)N(C)[C@H](C)C1CCCCC1` [Example 151]: the half-life was under 1.67 h.

For the origin of these results see patent publication US11198673B2, “Therapeutic compounds and compositions” (eXIthera Pharmaceuticals, Inc., priority 2014, dated 2021).
